This note sets out measurements from patent US12624018B1, “Inhibitors of RIPK2 and medical uses thereof” (Odyssey Therapeutics, Inc., priority 2022, dated 2026).

T1 sequence (O43353 1-299 limits assumed): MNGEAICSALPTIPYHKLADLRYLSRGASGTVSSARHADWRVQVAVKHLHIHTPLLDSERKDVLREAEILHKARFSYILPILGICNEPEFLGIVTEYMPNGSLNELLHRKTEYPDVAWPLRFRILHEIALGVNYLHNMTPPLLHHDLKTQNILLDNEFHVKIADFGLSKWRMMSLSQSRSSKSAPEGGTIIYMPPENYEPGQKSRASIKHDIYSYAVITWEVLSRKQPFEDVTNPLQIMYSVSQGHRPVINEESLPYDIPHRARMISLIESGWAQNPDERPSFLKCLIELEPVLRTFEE

This assay has as its target T1, RIPK2 enzyme (Homo sapiens, UniProt O43353).
T1 construct: purchased Carna 09-128
Briefly: RIPK2 inhibition (ADP-Glo Kinase Assay). Type of assay: biochemical. To be noted: RIPK2 5 nM, ATP 150 μM, MBP substrate, read-out: RIPK2 IC50. The method in brief: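 Human RIPK2 (5 nM) preincubated with compound 30 min at room temperature in 50 mM HEPES pH 7.5, 10 mM MgCl2, 2 mM DTT, 1 mM EGTA, 0.01% Brij-35, 0.05% BSA; native swine MBP as substrate. ADP formed quantified by ADP-Glo luminescence; percent inhibition relative to DMSO and no-enzyme controls.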
Regarding `CC(C)(C)n1cc(NC(=O)Cc2ccc(Oc3ccnc4ccc(S(C)(=O)=O)cc34)c(F)c2)cn1` [Compound 163, N-(1-(tert-butyl)-1H-pyrazol-4-yl)-2-(3-fluoro-4-((6-(methylsulfonyl)quinolin-4-yl)oxy)phenyl)acetamide], the IC50 was below 2.5 nM.

Regarding `CCS(=O)(=O)c1ccc2nccc(Oc3ccc(CC(=O)Nc4cnn(C(C)(C)C)c4)cc3F)c2c1` [Compound 164, N-(1-(tert-butyl)-1H-pyrazol-4-yl)-2-(4-((6-(ethylsulfonyl)quinolin-4-yl)oxy)-3-fluorophenyl)acetamide], the IC50 was below 2.5 nM.

With `CC(C)(C)n1cc(NC(=O)Cc2ccc(Oc3ccnc4ccc(OC5CCNCC5)cc34)c(F)c2F)cn1` [Compound 165, N-(1-(tert-butyl)-1H-pyrazol-4-yl)-2-(2,3-difluoro-4-((6-(piperidin-4-yloxy)quinolin-4-yl)oxy)phenyl) acetamide], the IC50 is below 2.5 nM.

For `CN1CCC(Oc2ccc3nccc(Oc4ccc(CC(=O)Nc5cnn(C(C)(C)C)c5)c(F)c4F)c3c2)CC1` [Compound 166, N-(1-(tert-butyl)-1H-pyrazol-4-yl)-2-(2,3-difluoro-4-((6-((1-methyl-piperidin-4-yl)oxy)quinolin-4-yl)oxy)phenyl) acetamide], the IC50 was below 2.5 nM.

With `CC(C)(C)n1cc(NC(=O)Cc2ccc(Oc3ccnc4ccc(S(C)(=O)=O)cc34)c(F)c2F)cn1` [Compound 167, N-(1-(tert-butyl)-1H-pyrazol-4-yl)-2-(2,3-difluoro-4-((6-(methylsulfonyl)quinolin-4-yl)oxy)phenyl)acetamide], the IC50 was below 2.5 nM.

On to `CCS(=O)(=O)c1ccc2nccc(Oc3ccc(CC(=O)Nc4cnn(C(C)(C)C)c4)c(F)c3F)c2c1` [Compound 168, N-(1-(tert-butyl)-1H-pyrazol-4-yl)-2-(4-((6-(ethylsulfonyl)quinolin-4-yl)oxy)-2,3-difluorophenyl)acetamide], for which the IC50 is below 2.5 nM.

Take `CC(C)(C)n1cc(NC(=O)Cc2ccc(Oc3ncnc4ccc(OC5CCNCC5)cc34)c(F)c2F)cn1` [Compound 169, N-(1-(tert-butyl)-1H-pyrazol-4-yl)-2-(2,3-difluoro-4-((6-(piperidin-4-yloxy)quinazolin-4-yl)oxy)phenyl) acetamide]: the IC50 was below 2.5 nM.

Regarding `CN1CCC(Oc2ccc3ncnc(Oc4ccc(CC(=O)Nc5cnn(C(C)(C)C)c5)c(F)c4F)c3c2)CC1` [Compound 170, N-(1-(tert-butyl)-1H-pyrazol-4-yl)-2-(2,3-difluoro-4-((6-((1-methyl-piperidin-4-yl)oxy)quinazolin-4-yl)oxy)phenyl) acetamide], the IC50 is below 2.5 nM.

Regarding `CC(C)(C)n1cc(NC(=O)Cc2ccc(Oc3ccnc4ccc(OC5CCNCC5)cc34)c(Cl)c2)cn1` [Compound 171, N-(1-(tert-butyl)-1H-pyrazol-4-yl)-2-(3-chloro-4-((6-(piperidin-4-yloxy)quinolin-4-yl)oxy)phenyl) acetamide], the IC50 was below 2.5 nM.

Regarding `CN1CCC(Oc2ccc3nccc(Oc4ccc(CC(=O)Nc5cnn(C(C)(C)C)c5)cc4Cl)c3c2)CC1` [Compound 172, N-(1-(tert-butyl)-1H-pyrazol-4-yl)-2-(3-chloro-4-((6-((1-methyl-piperidin-4-yl)oxy)quinolin-4-yl)oxy)phenyl) acetamide], the IC50 was below 2.5 nM.

Take `CCS(=O)(=O)c1ccc2nccc(Oc3ccc(CC(=O)Nc4cnn(C(C)(C)C)c4)c(F)c3C)c2c1` [Compound 173, N-(1-(tert-butyl)-1H-pyrazol-4-yl)-2-(4-((6-(ethylsulfonyl)quinolin-4-yl)oxy)-2-fluoro-3-methylphenyl)acetamide]: the 50% inhibitory concentration (IC50) is below 2.5 nM.

`Cc1c(Oc2ccnc3ccc(S(C)(=O)=O)cc23)ccc(CC(=O)Nc2cc(C(C)(C)C)n[nH]2)c1F` [Compound 175, N-(5-(tert-butyl)-1H-pyrazol-3-yl)-2-(2-fluoro-3-methyl-4-((6-(methylsulfonyl)quinolin-4-yl)oxy)phenyl)acetamide]: the IC50 is below 2.5 nM.

On to `Cc1cc(CC(=O)Nc2cnn(C(C)(C)C)c2)ccc1Oc1ncnc2ccc(OC3CCN(CCO)CC3)cc12` [Compound 176], for which the IC50 was determined as 4 nM.

Turning to `COCCN1CCC(Oc2ccc3ncnc(Oc4ccc(CC(=O)Nc5cnn(C(C)(C)C)c5)cc4C)c3c2)CC1` [Compound 177, N-(1-(tert-butyl)-1H-pyrazol-4-yl)-2-(4-((6-((1-(2-methoxyethyl)piperidin-4-yl)oxy)quinazolin-4-yl)oxy)-3-methylphenyl) acetamide], the IC50 was below 2.5 nM.

For `Cc1cc(CC(=O)Nc2cnn(C(C)(C)C)c2)ccc1Oc1ncnc2ccc(OC3CCN(CC(F)F)CC3)cc12` [Compound 178, N-(1-(tert-butyl)-1H-pyrazol-4-yl)-2-(4-((6-((1-(2,2-difluoroethyl)piperidin-4-yl)oxy)quinazolin-4-yl)oxy)-3-methylphenyl) acetamide], the IC50 turned out to be 5 nM.

`CCP(=O)(CC)c1ccc2nccc(Oc3ccc(CC(=O)Nc4cnn(C(C)(C)C)c4)cc3C)c2c1` [Compound 180, N-(1-(tert-butyl)-1H-pyrazol-4-yl)-2-(4-((6-(diethylphosphoryl)quinolin-4-yl)oxy)-3-methylphenyl) acetamide]: the IC50 was below 2.5 nM.

As for `Cc1cc(CC(=O)Nc2cnn(C(C)(C)C)c2)ccc1Oc1ccnc2ccc(P3(=O)CCCC3)cc12` [Compound 181, N-(1-(tert-butyl)-1H-pyrazol-4-yl)-2-(3-methyl-4-((6-(1-oxidophospholan-1-yl)quinolin-4-yl)oxy)phenyl) acetamide], the IC50 was below 2.5 nM.

Take `Cc1cc(CC(=O)Nc2noc(C(C)(C)C)n2)ccc1Oc1ncnc2ccc(OC3CCNCC3)cc12` [Compound 183, N-(5-(tert-butyl)-1,2,4-oxadiazol-3-yl)-2-(3-methyl-4-((6-(piperidin-4-yloxy)quinazolin-4-yl)oxy)phenyl) acetamide]: the IC50 is below 2.5 nM.

In the case of `Cc1cc(CC(=O)Nc2noc(C(C)(C)C)n2)ccc1Oc1ncnc2ccc(OC3CCN(C)CC3)cc12` [Compound 184, N-(5-(tert-butyl)-1,2,4-oxadiazol-3-yl)-2-(3-methyl-4-((6-((1-methylpiperidin-4-yl)oxy)quinazolin-4-yl)oxy)phenyl) acetamide], the IC50 turned out to be 3 nM.

As for `Cc1c(Oc2ncnc3ccc(OC4CCN(C)CC4)cc23)ccc(CC(=O)Nc2cc(C(C)(C)C)n[nH]2)c1F` [Compound 186, N-(5-(tert-butyl)-1H-pyrazol-3-yl)-2-(2-fluoro-3-methyl-4-((6-((1-methyl-piperidin-4-yl)oxy)quinazolin-4-yl)oxy)phenyl) acetamide], the half-maximal inhibitory concentration (IC50) is below 2.5 nM.

Take `Cc1cc(CC(=O)Nc2cnn(C(C)(C)C)c2)ccc1Oc1ccnc2ccc(OC[C@@H]3CCNC3)cc12` [Compound 192, (R)-N-(1-(tert-butyl)-1H-pyrazol-4-yl)-2-(3-methyl-4-((6-(pyrrolidin-3-ylmethoxy)quinolin-4-yl)oxy)phenyl) acetamide]: the IC50 was below 2.5 nM.

As to `Cc1cc(CC(=O)Nc2cnn(C(C)(C)C)c2)ccc1Oc1ccnc2ccc(OC[C@H]3CCNC3)cc12` [Compound 193, (S)-N-(1-(tert-butyl)-1H-pyrazol-4-yl)-2-(3-methyl-4-((6-(pyrrolidin-3-ylmethoxy)quinolin-4-yl)oxy)phenyl) acetamide], the IC50 was below 2.5 nM.

In the case of `Cc1cc(CC(=O)Nc2cnn(C(C)(C)C)c2)ccc1Oc1ccnc2ccc(OC[C@@H]3CCCNC3)cc12` [Compound 194, (R)-N-(1-(tert-butyl)-1H-pyrazol-4-yl)-2-(3-methyl-4-((6-(piperidin-3-ylmethoxy)quinolin-4-yl)oxy)phenyl) acetamide], the 50% inhibitory concentration (IC50) is below 2.5 nM.

In the case of `Cc1cc(CC(=O)Nc2cnn(C(C)(C)C)c2)ccc1Oc1ccnc2ccc(OC[C@H]3CCCNC3)cc12` [Compound 195, (S)-N-(1-(tert-butyl)-1H-pyrazol-4-yl)-2-(3-methyl-4-((6-(piperidin-3-ylmethoxy)quinolin-4-yl)oxy)phenyl) acetamide], the IC50 was below 2.5 nM.

With `[2H]C([2H])([2H])S(=O)(=O)c1ccc2nccc(Oc3ccc(CC(=O)Nc4cnn(C(C)(C)C)c4)cc3C)c2c1` [Compound 198, N-(1-(tert-butyl)-1H-pyrazol-4-yl)-2-(3-methyl-4-((6-((methyl-d3)sulfonyl)quinolin-4-yl)oxy)phenyl)acetamide], the IC50 is below 2.5 nM.

With `Cc1cc(CC(=O)Nc2cnn(C(C)(C)C)c2)ccc1Oc1ccnc2ccc(S(=O)(=O)CCO)cc12` [Compound 203, N-(1-(tert-butyl)-1H-pyrazol-4-yl)-2-(4-((6-((2-hydroxyethyl)sulfonyl)quinolin-4-yl)oxy)-3-methylphenyl)acetamide], the IC50 is below 2.5 nM.

As to `COCCS(=O)(=O)c1ccc2nccc(Oc3ccc(CC(=O)Nc4cnn(C(C)(C)C)c4)cc3C)c2c1` [Compound 204, N-(1-(tert-butyl)-1H-pyrazol-4-yl)-2-(4-((6-((2-methoxyethyl)sulfonyl)quinolin-4-yl)oxy)-3-methylphenyl)acetamide], the IC50 was below 2.5 nM.

As to `Cc1cc(CC(=O)Nc2cnn(C(C)(C)C)c2)ccc1Oc1ccnc2ccc(S(=O)(=O)CC3CC3)cc12` [Compound 205, N-(1-(tert-butyl)-1H-pyrazol-4-yl)-2-(4-((6-((cyclopropylmethyl)sulfonyl)quinolin-4-yl)oxy)-3-methylphenyl)acetamide], the IC50 was below 2.5 nM.

For `Cc1cc(CC(=O)Nc2cnn(C(C)(C)C)c2)ccc1Oc1ccnc2ccc(S(=O)(=O)C(C)C)cc12` [Compound 206, N-(1-(tert-butyl)-1H-pyrazol-4-yl)-2-(4-((6-(isopropylsulfonyl)quinolin-4-yl)oxy)-3-methylphenyl)acetamide], the IC50 is below 2.5 nM.

For `Cc1cc(CC(=O)Nc2cnn(C(C)(C)C)c2)ccc1Oc1ccnc2ccc(C(=O)N3CCNCC3)cc12` [Compound 207, N-(1-(tert-butyl)-1H-pyrazol-4-yl)-2-(3-methyl-4-((6-(piperazine-1-carbonyl)quinolin-4-yl)oxy)phenyl) acetamide], the IC50 is below 2.5 nM.
